From patent US20260116921A1, “PEPTIDE INHIBITORS OF INTERLEUKIN-23 RECEPTOR AND THEIR USE TO TREAT INFLAMMATORY DISEASES” (priority 2018, published 2026)
pIC50: −log10 of the molar value. Like-named read-outs stand apart in the source and are kept apart here. Numbered stars: 1 amine (or outer) side, 2 acyl side, 3 side chain; on linkers, the order of the positions; unused ones are H or OH. Bridge positions count the residues as written; N and C are the ends. Square brackets hold non-standard residues; d marks the D form. Peptide text beside a SMILES is read from it. X3 = CCc1ccc2c(C[C@H](N[*:1])C(=O)[*:2])c[nH]c2c1; Trp(7-Me) = Cc1cccc2c(C[C@H](N)C(=O)O)c[nH]c12; Trp(2-Me) = Cc1[nH]c2ccccc2c1C[C@H](N)C(=O)O; Abu(4-yl) = O=C([C@H](CC[*:3])N[*:1])[*:2]; 2Nal = N[C@@H](Cc1ccc2ccccc2c1)C(=O)O; AEF = NCCOc1ccc(C[C@H](N)C(=O)O)cc1; Cit = NC(=O)NCCC[C@H](N)C(=O)O; Pen = CC(C)(S)[C@H](N)C(=O)O; αMeK = C[C@](N)(CCCCN)C(=O)O; Aib = CC(C)(N)C(=O)O; βAla = NCCC(=O)O; Sar = CNCC(=O)O

Molecular target: T1, IL-23R (Homo sapiens, UniProt Q5VWK5)
T1 sequence (Q5VWK5 24-629): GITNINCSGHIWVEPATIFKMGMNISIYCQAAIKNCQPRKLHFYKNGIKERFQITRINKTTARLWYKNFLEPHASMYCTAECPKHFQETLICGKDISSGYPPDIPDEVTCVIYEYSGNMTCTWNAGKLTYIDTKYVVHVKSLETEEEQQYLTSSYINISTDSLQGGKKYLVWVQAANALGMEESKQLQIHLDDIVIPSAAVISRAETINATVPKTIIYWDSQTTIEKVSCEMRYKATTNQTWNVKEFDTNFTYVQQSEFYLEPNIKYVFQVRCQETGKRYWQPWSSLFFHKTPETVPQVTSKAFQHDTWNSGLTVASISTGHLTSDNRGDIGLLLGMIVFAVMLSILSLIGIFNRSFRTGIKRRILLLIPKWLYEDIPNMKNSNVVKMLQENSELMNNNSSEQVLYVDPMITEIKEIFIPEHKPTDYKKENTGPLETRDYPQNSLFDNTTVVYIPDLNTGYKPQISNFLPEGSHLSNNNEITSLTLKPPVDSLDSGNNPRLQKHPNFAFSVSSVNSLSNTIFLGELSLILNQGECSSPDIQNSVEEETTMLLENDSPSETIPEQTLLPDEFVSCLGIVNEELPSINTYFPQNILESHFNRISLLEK
Assay: DB cells IL23R pSTAT3 cell assay (pStat3 HTRF)
Format: cell-based
Source text: Human ELISA indicates the IL23-IL23R competitive binding assay described below, Rat ELISA indicates the rat IL-23R competitive binding ELISA assay described below, and pStat3HTRF indicates the DB cells IL-23R pSTAT3 cell assay described below. The peptides depicted in Table E1 are cyclized via a disulfide bridge formed between two Pen residues in these peptides. The peptides depicted in Table E2 are cyclized via a thioether bond between the indicated amino acid residues. Table E2 provides an illustrative structure depicting thioether cyclization, which is indicated in the table by the term “cyclo,” with the cyclic region bracketed immediately following the term “cyclo.” For certain peptides, the residue Abu is present where indicated, whereas in other embodiments, e.g., those related to the non-cyclized form, the Abu may be referred to as a hSer(Cl) or homoSer residue.
DB Cells IL23R pSTAT3 Cell Assay
IL-23 plays a central role in supporting and maintaining Th17 differentiation in vivo. This process is thought to be mediated primarily through the Signal Transducer and Activator of Transcription 3 (STAT3), with phosphorylation of STAT3 (to yield pSTAT3) leading to upregulation of RORC and pro-inflammatory IL-17. This cell assay examines the levels of pSTAT3 in IL-23R-expressing DB cells when stimulated with IL-23 in the presence of test compounds. Serial dilutions of test peptides and IL-23 (Humanzyme #HZ-1261) at a final concentration of 0.5 nM, were added to each well in a 96 well tissue culture plate (Corning #CLS3894). DB cells (ATCC #CRL-2289), cultured in RPMI-1640 medium (Thermo Scientific #11875093) supplemented with 10% FBS, were added at 5×10E5 cells/well and incubated for 30 minutes at 37° C. in a 5% CO2 humidified incubator. Changes in phospho-STAT3 levels in the cell lysates were detected using the Cisbio HTRF pSTAT3 (Tyr705) Cellular Assay Kit (Cisbio #62AT3PEH), according to manufacturer's Two Plate Assay protocol.

[1] = Table E3, DB cells, IL-23 0.5 nM, 30 minutes at 37° C., read-out: pStat3 HTRF (IC50)

| Compound | pIC50 [1] | pIC50 |
| --- | --- | --- |
| CC(=O)NCCCC[C@H](NC(=O)[C@](C)(CC(C)C)NC(=O)[C@H](Cc1ccc2ccccc2c1)NC(=O)[C@H](Cc1ccc(OCCN)cc1)NC(=O)[C@H]1NC(=O)[C@H](CCC(N)=O)NC(=O)[C@H](Cc2c[nH]c3ccc(O)cc23)NC(=O)[C@H]([C@@H](C)O)NC(=O)[C@H](CC(N)=O)NC(=O)[C@@H](NC(C)=O)C(C)(C)SSC1(C)C)C(=O)N[C@@H](CC(N)=O)C(=O)N[C@@H](CC(N)=O)C(N)=O [compound 10] |  | < 7.00 |
| COc1ccc2[nH]cc(C[C@@H]3NC(=O)[C@H]([C@@H](C)O)NC(=O)[C@H](CC(N)=O)NC(=O)[C@@H](NC(C)=O)C(C)(C)SSC(C)(C)[C@@H](C(=O)N[C@@H](Cc4ccc(OCCN)cc4)C(=O)N[C@@H](Cc4ccc5ccccc5c4)C(=O)N[C@@](C)(CC(C)C)C(=O)N[C@@H](CCCCNC(C)=O)C(=O)N[C@@H](CC(N)=O)C(=O)N[C@@H](CC(N)=O)C(N)=O)NC(=O)[C@H](CCC(N)=O)NC3=O)c2c1 [compound 9] |  | < 7.00 |
| COc1cccc2c(C[C@@H]3NC(=O)[C@H]([C@@H](C)O)NC(=O)[C@H](CC(N)=O)NC(=O)[C@@H](NC(C)=O)C(C)(C)SSC(C)(C)[C@@H](C(=O)N[C@@H](Cc4ccc(OCCN)cc4)C(=O)N[C@@H](Cc4ccc5ccccc5c4)C(=O)N[C@@](C)(CCCCN)C(=O)N[C@@H](CCCCNC(C)=O)C(=O)N[C@@H](CC(N)=O)C(=O)N[C@H](CCCCN)C(N)=O)NC(=O)[C@H](CCCCNC(C)=O)NC3=O)c[nH]c12 [compound 299] | 8.00 to 9.00 |  |
| CCc1ccc2c(C[C@@H]3NC(=O)[C@H]([C@@H](C)O)NC(=O)[C@H](CC(N)=O)NC(=O)[C@@H](NC(C)=O)C(C)(C)SSC(C)(C)[C@@H](C(=O)N[C@@H](Cc4ccc(OCCN)cc4)C(=O)N[C@@H](Cc4ccc5ccccc5c4)C(=O)N[C@@](C)(CCCCN)C(=O)N[C@@H](CCCCNC(C)=O)C(=O)N[C@@H](CC(N)=O)C(=O)N[C@H](CCCCN)C(N)=O)NC(=O)[C@H](CCCCNC(C)=O)NC3=O)c[nH]c2c1 [compound 349] (Ac-[Pen]NT[X3]K(Ac)[Pen][AEF][2Nal][αMeK]K(Ac)N[dK]-NH2; disulfide 1-6) |  | 8.00 to 9.00 |
| COc1ccc2[nH]cc(C[C@H](NC(=O)[C@H](Cc3ccc(OCCN)cc3)NC(=O)[C@H]3NC(=O)[C@H](CCC(N)=O)NC(=O)[C@H](Cc4c[nH]c5ccccc45)NC(=O)[C@H]([C@@H](C)O)NC(=O)[C@H](CC(N)=O)NC(=O)[C@@H](NC(C)=O)C(C)(C)SSC3(C)C)C(=O)N[C@@](C)(CC(C)C)C(=O)N[C@@H](CCCCNC(C)=O)C(=O)N[C@@H](CC(N)=O)C(=O)N[C@@H](CC(N)=O)C(N)=O)c2c1 [compound 20] |  | 7.00 to 8.00 |
| CC(=O)NCCCC[C@H](NC(=O)[C@](C)(CC(C)C)NC(=O)[C@H](Cc1ccc2ccccc2c1)NC(=O)[C@H](Cc1ccc(OCCN)cc1)NC(=O)[C@H]1NC(=O)[C@H](CCC(N)=O)NC(=O)[C@H](Cc2c[nH]c3ccc(Br)cc23)NC(=O)[C@H]([C@@H](C)O)NC(=O)[C@H](CC(N)=O)NC(=O)[C@@H](NC(C)=O)C(C)(C)SSC1(C)C)C(=O)N[C@@H](CC(N)=O)C(=O)N[C@@H](CC(N)=O)C(N)=O [compound 11] |  | < 7.00 |

Second part, led by results:

| pIC50 [1] | Compound | pIC50 |
| --- | --- | --- |
| 8.00 to 9.00 | CC(=O)NCCCC[C@@H]1NC(=O)[C@H](Cc2c[nH]c3c(C)cccc23)NC(=O)[C@H]([C@@H](C)O)NC(=O)[C@H](CCC(N)=O)NC(=O)[C@@H](NC(=O)[C@@H](CCCNC(=N)N)NC(C)=O)CCSC[C@@H](C(=O)N[C@@H](Cc2ccc(OCCN)cc2)C(=O)N[C@@H](Cc2ccc3ccccc3c2)C(=O)N[C@@](C)(CCCCN)C(=O)N[C@@H](CCCCNC(C)=O)C(=O)N[C@@H](CC(N)=O)C(=O)N[C@H](CCCCN)C(=O)N(C)CC(N)=O)NC1=O [compound 323] (Ac-[dR][Abu(4-yl)]QT[Trp(7-Me)]K(Ac)C[AEF][2Nal][αMeK]K(Ac)N[dK][Sar]-NH2; thioether 2-7) |  |
| > 9.00 | CC(=O)NCCCC[C@@H]1NC(=O)[C@H](Cc2c[nH]c3c(C)cccc23)NC(=O)[C@H]([C@@H](C)O)NC(=O)[C@H](CC(N)=O)NC(=O)[C@@H](NC(C)=O)C(C)(C)SSC(C)(C)[C@@H](C(=O)N[C@@H](Cc2ccc(OCCN)cc2)C(=O)N[C@@H](Cc2c(C)[nH]c3ccccc23)C(=O)N[C@@](C)(CCCCN)C(=O)N[C@@H](CCCCNC(C)=O)C(=O)N[C@@H](CC(N)=O)C(=O)N[C@H](CCCCN)C(N)=O)NC1=O [compound 353] (Ac-[Pen]NT[Trp(7-Me)]K(Ac)[Pen][AEF][Trp(2-Me)][αMeK]K(Ac)N[dK]-NH2; disulfide 1-6) |  |
| > 9.00 | CC(=O)NCCCC[C@H](NC(=O)[C@](C)(CCCCN)NC(=O)[C@H](Cc1ccc2ccccc2c1)NC(=O)[C@H](Cc1ccc(OCCN)cc1)NC(=O)[C@H]1NC(=O)[C@H](CCCNC(N)=O)NC(=O)[C@H](Cc2c[nH]c3c(C)cccc23)NC(=O)[C@H]([C@@H](C)O)NC(=O)[C@H](CC(N)=O)NC(=O)[C@@H](NC(C)=O)C(C)(C)SSC1(C)C)C(=O)N[C@@H](CC(N)=O)C(=O)NC(C)(C)C(=O)NCCC(N)=O [compound 340] (Ac-[Pen]NT[Trp(7-Me)][Cit][Pen][AEF][2Nal][αMeK]K(Ac)N[Aib][βAla]-NH2; disulfide 1-6) |  |
| 8.00 to 9.00 | CC(=O)NCCCC[C@H](NC(=O)[C@](C)(CCCCN)NC(=O)[C@H](Cc1ccc2ccccc2c1)NC(=O)[C@H](Cc1ccc(OCCN)cc1)NC(=O)[C@H]1NC(=O)[C@H](CCCNC(N)=O)NC(=O)[C@H](Cc2c[nH]c3c(C)cccc23)NC(=O)[C@H]([C@@H](C)O)NC(=O)[C@H](CC(N)=O)NC(=O)[C@@H](NC(C)=O)C(C)(C)SSC1(C)C)C(=O)N[C@@H](CC(N)=O)C(=O)N(C)CC(N)=O [compound 339] (Ac-[Pen]NT[Trp(7-Me)][Cit][Pen][AEF][2Nal][αMeK]K(Ac)N[Sar]-NH2; disulfide 1-6) |  |
| 8.00 to 9.00 | CC(=O)NCCCC[C@H](NC(=O)[C@](C)(CCCCN)NC(=O)[C@H](Cc1ccc2ccccc2c1)NC(=O)[C@H](Cc1ccc(OCCN)cc1)NC(=O)[C@H]1NC(=O)[C@H](CCCNC(N)=O)NC(=O)[C@H](Cc2c[nH]c3c(C)cccc23)NC(=O)[C@H]([C@@H](C)O)NC(=O)[C@H](CC(N)=O)NC(=O)[C@@H](NC(C)=O)C(C)(C)SSC1(C)C)C(=O)N[C@@H](CC(N)=O)C(=O)NC(C)(C)C(=O)N[C@@H](CCCNC(=N)N)C(N)=O [compound 343] (Ac-[Pen]NT[Trp(7-Me)][Cit][Pen][AEF][2Nal][αMeK]K(Ac)N[Aib]R-NH2; disulfide 1-6) |  |
| > 9.00 | CC(=O)NCCCC[C@H](NC(=O)[C@](C)(CCCCN)NC(=O)[C@H](Cc1ccc2ccccc2c1)NC(=O)[C@H](Cc1ccc(OCCN)cc1)NC(=O)[C@H]1NC(=O)[C@H](CCCNC(N)=O)NC(=O)[C@H](Cc2c[nH]c3c(C)cccc23)NC(=O)[C@H]([C@@H](C)O)NC(=O)[C@H](CC(N)=O)NC(=O)[C@@H](NC(C)=O)C(C)(C)SSC1(C)C)C(=O)N[C@@H](CC(N)=O)C(=O)NC(C)(C)C(=O)N[C@H](Cc1ccc(O)cc1)C(N)=O [compound 347] (Ac-[Pen]NT[Trp(7-Me)][Cit][Pen][AEF][2Nal][αMeK]K(Ac)N[Aib][dY]-NH2; disulfide 1-6) |  |
| > 9.00 | CC(=O)NCCCC[C@H](NC(=O)[C@](C)(CCCCN)NC(=O)[C@H](Cc1ccc2ccccc2c1)NC(=O)[C@H](Cc1ccc(OCCN)cc1)NC(=O)[C@H]1NC(=O)[C@H](CCCNC(N)=O)NC(=O)[C@H](Cc2c[nH]c3c(C)cccc23)NC(=O)[C@H]([C@@H](C)O)NC(=O)[C@H](CC(N)=O)NC(=O)[C@@H](NC(C)=O)C(C)(C)SSC1(C)C)C(=O)N[C@@H](CC(N)=O)C(=O)NC(C)(C)C(=O)N[C@@H](C)C(N)=O [compound 342] (Ac-[Pen]NT[Trp(7-Me)][Cit][Pen][AEF][2Nal][αMeK]K(Ac)N[Aib]A-NH2; disulfide 1-6) |  |
| 8.00 to 9.00 | CC(=O)NCCCC[C@H](NC(=O)[C@](C)(CCCCN)NC(=O)[C@H](Cc1ccc2ccccc2c1)NC(=O)[C@H](Cc1ccc(OCCN)cc1)NC(=O)[C@H]1NC(=O)[C@H](CCCCNC(=O)[C@H](C)N)NC(=O)[C@H](Cc2c[nH]c3c(C)cccc23)NC(=O)[C@H]([C@@H](C)O)NC(=O)[C@H](CC(N)=O)NC(=O)[C@@H](NC(C)=O)C(C)(C)SSC1(C)C)C(=O)N[C@@H](CC(N)=O)C(=O)N[C@H](CC(C)C)C(N)=O [compound 314] |  |
